# Key:
# [1] = test system: velvetleaf; experiment: Test B pre/postemergence velvetleaf; format: in vivo, Abutilon theophrasti
# Method in brief: (§1)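 Herbicidal effect was estimated by eye on a ten-point control scale after plants spent twelve to sixteen days in a greenhouse following soil or foliar treatment. Foliar sprays targeted plants at one to four leaves; all doses were formulated in a non-phytotoxic solvent with surfactant.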
# [2] = test system: rape; experiment: Test B pre/postemergence rape; format: in vivo, Brassica napus
# Method in brief: as §1
# [3] = test system: cocklebur; experiment: Test B pre/postemergence cocklebur; format: in vivo, Xanthium strumarium
# Method in brief: as §1
# [4] = test system: surinam grass; experiment: Test B pre/postemergence surinam grass; format: in vivo, Brachiaria decumbens
# Method in brief: as §1
# [5] = test system: pigweed; experiment: Test B pre/postemergence pigweed; format: in vivo, Amaranthus retroflexus
# Method in brief: as §1
# [6] = test system: corn; experiment: Test B pre/postemergence corn; format: in vivo, Zea mays
# Method in brief: as §1
# [7] = test system: soybean; experiment: Test B pre/postemergence soybean; format: in vivo, Glycine max
# Method in brief: as §1
# [8] = test system: rice; experiment: Test B flood test rice; format: in vivo, Oryza sativa
# Method in brief: (§2)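 Each value is a visual injury score relative to controls, with 10 meaning complete control and 0 no effect. Evaluation took place twelve to sixteen days after the 2-leaf-stage plants were treated and kept in the greenhouse.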
# [9] = test system: crabgrass; experiment: Test B pre/postemergence crabgrass; format: in vivo, Digitaria sanguinalis
# Method in brief: as §1
# [10] = test system: blackgrass; experiment: Test B pre/postemergence blackgrass; format: in vivo, Alopecurus myosuroides
# Method in brief: as §1
# [11] = test system: wheat; experiment: Test B pre/postemergence wheat; format: in vivo, Triticum aestivum
# Method in brief: as §1
# [12] = test system: morningglory; experiment: Test B pre/postemergence morningglory; format: in vivo, Ipomoea hederacea
# Method in brief: as §1
# [13] = test system: smallflower flatsedge; experiment: Test B flood test smallflower flatsedge; format: in vivo, Cyperus difformis
# Method in brief: as §2
# [14] = test system: sugar beet; experiment: Test B pre/postemergence sugar beet; format: in vivo, Beta vulgaris
# Method in brief: as §1
# [15] = test system: wild oat; experiment: Test B pre/postemergence wild oat; format: in vivo, Avena fatua
# Method in brief: as §1
# [16] = test system: giant foxtail; experiment: Test B pre/postemergence giant foxtail; format: in vivo, Setaria faberii
# Method in brief: as §1
# [17] = Postemergence, Rate 250 g/ha, scale 0 to 10
# [18] = Postemergence, Rate 500 g/ha, scale of 0 to 10 where 0 is no effect and 10 is complete control
# [19] = Preemergence, Rate 62 g/ha, scale 0 to 10 (0 no effect, 10 complete control)
# [20] = Preemergence, Rate 125 g/ha, scale of 0 to 10 where 0 is no effect and 10 is complete control
# [21] = Preemergence, Rate 250 g/ha, scale 0 to 10, 0 is no effect, 10 is complete control
# [22] = Preemergence, Rate 500 g/ha, scale 0 to 10, 0 is no effect, 10 is complete control
# [23] = Rate 125 g/ha, Postemergence, scale 0 to 10, 0 is no effect, 10 is complete control
# [24] = Rate 62 g/ha, Postemergence, scale of 0 to 10 where 0 is no effect and 10 is complete control
# [25] = Postemergence block (flood test species), Rate 250 g/ha, scale 0 to 10
# [26] = Postemergence section (flood test species), Rate 500 g/ha, scale of 0 to 10 where 0 is no effect and 10 is complete control
# [27] = Rate 125 g/ha, Postemergence section (flood test species), scale 0 to 10, 0 is no effect, 10 is complete control
smiles,measurement,setting,value
CC(C)N(C(=O)n1oc(=O)n(CC#N)c1=O)c1ccccc1 [Compound 434],Velvetleaf plant response rating,[1]; [17],0
same,Velvetleaf plant response rating,[1]; [18],0
same,"Plant response rating, Velvetleaf",[1]; [19],0
same,"Plant response rating, Velvetleaf",[1]; [20],0
same,Velvetleaf plant response rating,[1]; [21],0
same,Velvetleaf plant response rating,[1]; [22],0
same,Velvetleaf plant response rating,[1]; [23],0
same,Rape plant response rating,[2]; [17],0
same,Rape plant response rating,[2]; [18],0
same,"Plant response rating, Rape",[2]; [19],0
same,"Plant response rating, Rape",[2]; [20],0
same,Rape plant response rating,[2]; [21],0
same,Rape plant response rating,[2]; [22],0
same,Rape plant response rating,[2]; [23],0
same,Cocklebur plant response rating,[3]; [17],0
same,Cocklebur plant response rating,[3]; [18],0
same,"Plant response rating, Cocklebur",[3]; [19],0
same,"Plant response rating, Cocklebur",[3]; [20],0
same,Cocklebur plant response rating,[3]; [21],0
same,Cocklebur plant response rating,[3]; [22],0
same,Cocklebur plant response rating,[3]; [24],0
same,Cocklebur plant response rating,[3]; [23],0
same,B. signalgrass plant response rating,"[4]; Postemergence, Rate 250 g/ha, scale 0 to 10, 0 no effect, 10 complete control",0
same,B. signalgrass plant response rating,[4]; [18],0
same,"Plant response rating, B. signalgrass",[4]; [19],0
same,"Plant response rating, B. signalgrass",[4]; [20],0
same,B. signalgrass plant response rating,[4]; [21],0
same,B. signalgrass plant response rating,[4]; [22],0
same,B. signalgrass plant response rating,[4]; [24],0
same,B. signalgrass plant response rating,[4]; [23],0
same,Redroot pigweed plant response rating,[5]; [17],0
same,Redroot pigweed plant response rating,[5]; [18],0
same,"Plant response rating, Redroot pigweed",[5]; [19],0
same,"Plant response rating, Redroot pigweed",[5]; [20],0
same,Redroot pigweed plant response rating,[5]; [21],0
same,Redroot pigweed plant response rating,[5]; [22],4
same,Redroot pigweed plant response rating,[5]; [23],0
same,Corn plant response rating,[6]; [17],0
same,Corn plant response rating,[6]; [18],0
same,"Plant response rating, Corn",[6]; [19],0
same,"Plant response rating, Corn",[6]; [20],0
same,Corn plant response rating,[6]; [21],0
same,Corn plant response rating,[6]; [22],0
same,Corn plant response rating,[6]; [24],0
same,Corn plant response rating,[6]; [23],0
same,Soybean plant response rating,[7]; [17],1
same,Soybean plant response rating,[7]; [18],1
same,"Plant response rating, Soybean",[7]; [19],0
same,"Plant response rating, Soybean",[7]; [20],0
same,Soybean plant response rating,[7]; [21],0
same,Soybean plant response rating,[7]; [22],0
same,Soybean plant response rating,[7]; [23],0
same,Rice plant response rating,[8]; [25],0
same,Rice plant response rating,[8]; [26],0
same,Rice plant response rating,[8]; [27],0
same,Crabgrass plant response rating,[9]; [17],1
same,Crabgrass plant response rating,[9]; [18],4
same,"Plant response rating, Crabgrass",[9]; [19],0
same,"Plant response rating, Crabgrass",[9]; [20],0
same,Crabgrass plant response rating,[9]; [21],0
same,Crabgrass plant response rating,[9]; [22],1
same,Crabgrass plant response rating,[9]; [24],0
same,Crabgrass plant response rating,[9]; [23],0
same,Blackgrass plant response rating,[10]; [17],0
same,Blackgrass plant response rating,[10]; [18],0
same,"Plant response rating, Blackgrass",[10]; [19],0
same,"Plant response rating, Blackgrass",[10]; [20],0
same,Blackgrass plant response rating,[10]; [21],0
same,Blackgrass plant response rating,[10]; [22],0
same,Blackgrass plant response rating,[10]; [24],0
same,Blackgrass plant response rating,[10]; [23],0
same,Wheat plant response rating,[11]; [17],0
same,Wheat plant response rating,[11]; [18],0
same,"Plant response rating, Wheat",[11]; [19],0
same,"Plant response rating, Wheat",[11]; [20],0
same,Wheat plant response rating,[11]; [21],0
same,Wheat plant response rating,[11]; [22],0
same,Wheat plant response rating,[11]; [23],0
same,Morningglory plant response rating,[12]; [17],1
same,Morningglory plant response rating,[12]; [18],1
same,"Plant response rating, Morningglory",[12]; [19],0
same,"Plant response rating, Morningglory",[12]; [20],0
same,Morningglory plant response rating,[12]; [21],0
same,Morningglory plant response rating,[12]; [22],0
same,Morningglory plant response rating,[12]; [23],0
same,S. Flatsedge plant response rating,[13]; [25],0
same,S. Flatsedge plant response rating,[13]; [26],0
same,S. Flatsedge plant response rating,[13]; [27],0
same,Sugarbeets plant response rating,[14]; [17],0
same,Sugarbeets plant response rating,[14]; [18],0
same,"Plant response rating, Sugarbeets",[14]; [19],0
same,"Plant response rating, Sugarbeets",[14]; [20],0
same,Sugarbeets plant response rating,[14]; [21],0
same,Sugarbeets plant response rating,[14]; [22],0
same,Sugarbeets plant response rating,[14]; [23],0
same,Wild oats plant response rating,[15]; [17],0
same,Wild oats plant response rating,[15]; [18],0
same,"Plant response rating, Wild oats",[15]; [19],0
same,"Plant response rating, Wild oats",[15]; [20],0
same,Wild oats plant response rating,[15]; [21],0
same,Wild oats plant response rating,[15]; [22],0
same,Wild oats plant response rating,[15]; [23],0
same,Giant foxtail plant response rating,[16]; [17],1
same,Giant foxtail plant response rating,[16]; [18],4
same,"Plant response rating, Giant foxtail",[16]; [19],0
same,"Plant response rating, Giant foxtail",[16]; [20],0
same,Giant foxtail plant response rating,[16]; [21],0
same,Giant foxtail plant response rating,[16]; [22],2
same,Giant foxtail plant response rating,[16]; [24],0
same,Giant foxtail plant response rating,[16]; [23],0
